Laboratory results published in US10662164B2, “Non-beta lactam antibiotics” (University of Notre Dame du Lac, priority 2014, dated 2020).
Converted amounts (≈) assume the structure as drawn. Like-named read-outs stand apart in the source and are kept apart here. Marks after values point to notes of the source that are not given here.

Tests used:
S. aureus ATCC 29213 = assay: MIC determination; format: cell-based, Staphylococcus aureus; conditions: for MIC: Staphylococcus aureus, read-out: MIC
B. cereus ATCC 13061 = assay: MIC determination; format: cell-based; conditions: Bacillus cereus, ATCC13061; Tables 1 and 5; read-out: MIC
Description: (§1) The ESKAPE organisms (E. faecium NCTC (ATCC 19734), S. aureus ATCC 29213, K. pneumonia ATCC 700603, A. baumannii ATCC 17961, P. aeruginosa ATCC 17853, E. aerogenes ATCC 35029) and E. coli ATCC 25922) in the initial screen, S. aureus ATCC 27660, S. epidermis ATCC 35547, S. haemolyticus ATCC 29970, S. oralis ATCC 9811, S. pyogenes ATCC 49399, B. cereus ATCC 13061, B. licheniformis ATCC 12759, and E. faecalis ATCC 29212 were purchased from the American Type Culture Collection (Manassas, Va., USA). S. aureus strains NRS100, NRS119, NRS120, VRS1, and VRS2 were obtained from the Network on Antimicrobial Resistance in Staphylococcus aureus (Chantilly, Va., USA). E. faecalis strains 201 and 99, and E. faecium strains 119-39A and 106 were collected from Wayne State University School of Medicine.
(§2) The procedure for MIC determination was the same as previously reported (Tran et al., Am. J. Clin. Dermatol. 2015; doi 10.1007/S40257-015-0125-9).

[1] = test system: B. licheniformis ATCC 12759; assay: MIC determination; format: cell-based; conditions: Bacillus licheniformis, ATCC12759; Tables 1 and 5; read-out: MIC
Description: as §1, §2

E. faecalis 201 (Van S) = assay: MIC determination; format: cell-based; conditions: Enterococcus faecalis; vancomycin-susceptible clinical isolate; Tables 1 and 5; read-out: MIC
Description: as §1, §2

E. faecalis 99 (Van R) = assay: MIC determination; format: cell-based; conditions: Enterococcus faecalis; vancomycin-resistant clinical isolate; Tables 1 and 5
Description: as §1, §2

E. faecalis ATCC 29212 = assay: MIC determination; format: cell-based; conditions: Enterococcus faecalis, ATCC29212; quality-control strain; Tables 1 and 5; read-out: MIC
Description: as §1, §2

E. faecium 106 (Van R) [2] = assay: MIC determination; format: cell-based; conditions: Enterococcus faecium
Description: as §1, §2

[3] = test system: E. faecium 119-39A (Van S); assay: MIC determination; format: cell-based; conditions: Enterococcus faecium
Description: as §1, §2

S. aureus ATCC 27660 [4] = assay: MIC determination; format: cell-based; conditions: Staphylococcus aureus, ATCC27660; mecA positive, resistant to methicillin, oxacillin, tetracycline; Tables 1 and 5; read-out: MIC
Description: as §1, §2

S. aureus NRS100 (COL) = assay: MIC determination; format: cell-based; conditions: Staphylococcus aureus, mecA positive, resistant to methicillin, oxacillin, tetracycline, Tables 1 and 5, read-out: MIC
Description: as §1, §2

S. aureus NRS119 = assay: MIC determination; format: cell-based; conditions: Staphylococcus aureus, mecA positive, linezolid-resistant, Tables 1 and 5, read-out: MIC
Description: as §1, §2

S. aureus NRS120 = assay: MIC determination; format: cell-based; conditions: Staphylococcus aureus, mecA positive, linezolid-resistant, Tables 1 and 5, read-out: MIC
Description: as §1, §2

S. aureus VRS1 [5] = assay: MIC determination; format: cell-based; conditions: Staphylococcus aureus; vancomycin-resistant MRSA (vanA) isolate from Michigan; Tables 1 and 5; read-out: MIC
Description: as §1, §2

S. aureus VRS2 = assay: MIC determination; format: cell-based; conditions: Staphylococcus aureus; vancomycin-resistant MRSA (vanA) isolate from Pennsylvania; Tables 1 and 5; read-out: MIC
Description: as §1, §2

S. epidermis ATCC 35547 [6] = assay: MIC determination; format: cell-based
Description: as §1, §2

[7] = test system: S. haemolyticus ATCC 29970; assay: MIC determination; format: cell-based; conditions: Staphylococcus haemolyticus, ATCC29970; Tables 1 and 5; read-out: MIC
Description: as §1, §2

E. faecium C68 [8] = assay: MIC determination; format: cell-based; conditions: Enterococcus faecium, vancomycin-resistant clinical strain from Cleveland hospitals, Table 5
Description: as §2

S. oralis ATCC 9811 = assay: MIC determination; format: cell-based; conditions: Streptococcus oralis, ATCC9811
Description: as §1, §2

S. pyogenes ATCC 49399 = assay: MIC determination; format: cell-based; conditions: Streptococcus pyogenes, ATCC49399
Description: as §1, §2

E. faecium NCTC 7171 = assay: MIC determination; format: cell-based, Enterococcus faecium; conditions: Enterococcus faecium, NCTC7171
S. aureus ATCC 27660 [9] = assay: Mouse peritonitis model of infection; format: in vivo; conditions: po, single dose given at 1 h after infection
Protocol: Compounds 60b, 60c, 65b, 66b, 75b and 76b were evaluated in the mouse peritonitis model of infection (Table 2). We used the ICR out-bred strain of mice that provides a heterogeneous population, similar to the human situation, thus, ensuring the relevance of the antibacterial effect. This animal model of infection is widely used, it is easy to carry out, and the end points (death or survival) are rapidly assessed, making it less resource-intensive compared to other infection models. In addition, excellent correlation between MIC and ED50 has been shown for 14 β-lactam antibiotics using this model (Kratochwil et al., Biochem. Pharmacol. 2002, 64, 1355). The mouse peritonitis infection model continues to be an important model for evaluation of the efficacy of antibiotics against human pathogens. We use the iv route of administration in initial efficacy studies, as this allows us to test the efficacy without knowledge of the oral bioavailability of the lead. Evaluation was done at 20 mg/kg.
Female ICR mice (6-8 weeks old, ˜20-g body weight) were used for the PK and peritonitis studies. Animals were purchased from Harlan Laboratories, Inc. (Indianapolis, Ind., USA) and given Teklad 2019 Extruded Rodent Diet and water ad libitum. Mice were maintained in polycarbonate shoebox cages with ¼″ corncob (The Andersons Inc., Maumee, Ohio) and Alpha-dri (Sheperd Specialty Papers, Inc., Richland, Mich.) bedding under 12-h light/12-h dark cycle at 72±2° F.
The mouse peritonitis model was used with S. aureus ATCC 27660, as described previously (Tran et al., Am. J. Clin. Dermatol. 2015; doi 10.1007/S40257-015-0125-9). The final bacterial inocula contained 5×10^7 cfu/mL and 5% mucin (Sigma-Aldrich Chemical Co., St Louis, Mo., USA). Just prior to inoculation, bacteria at 10^8 cfu/mL were mixed 1:1 with 10% mucin. Mice (n=6 per group) were given 0.5 mL of the bacterial inocula intraperitoneally. Mice were given two iv doses of the compounds at 30 min and 7.5 h after infection by tail vein injection. […] Mice were monitored for 48 h, at which time the number of surviving mice were counted.
The effective dose that results in survival of 50% of the mice was determined using Probit analysis (XLSTAT, New York, N.Y.). Groups of six mice per dose level were evaluated in the mouse peritonitis infection model at iv doses of 2.5, 5, 7.5, 10, 15, and 20 mg/kg and after po doses at 2.5, 5, 10, 20, and 40 mg/kg. […]

[10] = cited from earlier work
S. aureus VRS1 [11] = conditions: vancomycin, data from reference 10; Table 5; cited from earlier work
S. epidermis ATCC 35547 [12] = conditions: vancomycin, data from reference 10; Table 5; cited from earlier work
[13] = test system: E. faecium 119-39A (Van S); conditions: vancomycin, data from reference 10; Table 5; cited from earlier work
E. faecium 106 (Van R) [14] = conditions: vancomycin, data from reference 10; Table 5; cited from earlier work
E. faecium C68 [15] = conditions: vancomycin, data from reference 12; Table 5; cited from earlier work
[16] = ATCC29213, S. aureus ATCC29213, second numbering, compounds of Scheme 6
[17] = ATCC29213, quality-control, methicillin-susceptible strain, Tables 1 and 5
[18] = vancomycin-resistant clinical isolate, Tables 1 and 5, read-out: MIC
[19] = vancomycin-susceptible clinical isolate, Tables 1 and 5, read-out: MIC

Compound	MIC (S. aureus ATCC 29213; [17]) [µg/mL]	MIC (B. cereus ATCC 13061) [µg/mL]	MIC [1] [µg/mL]	MIC (E. faecalis 201 (Van S)) [µg/mL]	MIC (E. faecalis 99 (Van R)) [µg/mL]	MIC (E. faecalis ATCC 29212) [µg/mL]	MIC (E. faecium 106 (Van R) [2]; [18]) [µg/mL]	MIC [3, 19] [µg/mL]	MIC (S. aureus ATCC 27660 [4]) [µg/mL]	MIC (S. aureus NRS100 (COL)) [µg/mL]	MIC (S. aureus NRS119) [µg/mL]	MIC (S. aureus NRS120) [µg/mL]	MIC (S. aureus VRS1 [5]) [µg/mL]	MIC (S. aureus VRS2) [µg/mL]	MIC (S. epidermis ATCC 35547 [6]; Tables 1 and 5, read-out: MIC) [µg/mL]	MIC [7] [µg/mL]	MIC (E. faecium C68 [8]) [µg/mL]	also measured
Oc1ccc(-c2nc(-c3ccc(Oc4ccccc4)c(O)c3)no2)cc1 [Compound 51a, 5-(5-(4-hydroxyphenyl)-1,2,4-oxadiazol-3-yl)-2-phenoxyphenol]	2 (≈ 5.77 µM)	8 (≈ 23.1 µM)	16 (≈ 46.2 µM)	8 (≈ 23.1 µM)	16 (≈ 46.2 µM)	8 (≈ 23.1 µM)	8 (≈ 23.1 µM)	8 (≈ 23.1 µM)	16 (≈ 46.2 µM)	16 (≈ 46.2 µM)	8 (≈ 23.1 µM)	8 (≈ 23.1 µM)	8 (≈ 23.1 µM)	8 (≈ 23.1 µM)	16 (≈ 46.2 µM)	8 (≈ 23.1 µM)	8 (≈ 23.1 µM)	MIC (S. aureus ATCC 29213; [16]): 2 µg/mL (≈ 5.77 µM)
Oc1ccc(-c2nc(-c3ccc(Oc4ccccc4)cc3Cl)no2)cc1 [Compound 52a, 4-(3-(2-chloro-4-phenoxyphenyl)-1,2,4-oxadiazol-5-yl)phenol]	2 (≈ 5.48 µM)	4 (≈ 11 µM)	2 (≈ 5.48 µM)	4 (≈ 11 µM)	4 (≈ 11 µM)	4 (≈ 11 µM)	4 (≈ 11 µM)	4 (≈ 11 µM)	8 (≈ 21.9 µM)	8 (≈ 21.9 µM)	4 (≈ 11 µM)	4 (≈ 11 µM)	2 (≈ 5.48 µM)	2 (≈ 5.48 µM)	4 (≈ 11 µM)	4 (≈ 11 µM)	4 (≈ 11 µM)	MIC (S. aureus ATCC 29213; [16]): 2 µg/mL (≈ 5.48 µM)
[N-]=[N+]=Nc1cc(-c2noc(-c3ccc(O)cc3)n2)ccc1Oc1ccccc1 [Compound 53a, 4-(3-(3-azido-4-phenoxyphenyl)-1,2,4-oxadiazol-5-yl)phenol]	2 (≈ 5.39 µM)	4 (≈ 10.8 µM)	4 (≈ 10.8 µM)	4 (≈ 10.8 µM)	4 (≈ 10.8 µM)	2 (≈ 5.39 µM)	4 (≈ 10.8 µM)	4 (≈ 10.8 µM)	4 (≈ 10.8 µM)	4 (≈ 10.8 µM)	4 (≈ 10.8 µM)	4 (≈ 10.8 µM)	2 (≈ 5.39 µM)	2 (≈ 5.39 µM)	2 (≈ 5.39 µM)	2 (≈ 5.39 µM)	4 (≈ 10.8 µM)	antibacterial activity in words (SAR, C/D ring derivatives) (S. aureus ATCC 29213; S. aureus ATCC29213, second numbering, compounds of Scheme 6): demonstrated activity
CC(=O)NC[C@H]1CN(c2ccc(N3CCOCC3)c(F)c2)C(=O)O1 [linezolid, reference compound]	4 (≈ 11.9 µM)	1 (≈ 2.96 µM)	1 (≈ 2.96 µM)	2 (≈ 5.93 µM)	1 (≈ 2.96 µM)	2 (≈ 5.93 µM)	1 (≈ 2.96 µM)	2 (≈ 5.93 µM)	2 (≈ 5.93 µM)	2 (≈ 5.93 µM)	32 (≈ 94.9 µM)	32 (≈ 94.9 µM)	2 (≈ 5.93 µM)	2 (≈ 5.93 µM)	1 (≈ 2.96 µM)	2 (≈ 5.93 µM)	–	MIC (S. oralis ATCC 9811; Table 1, read-out: MIC): 1 µg/mL (≈ 2.96 µM); MIC (S. pyogenes ATCC 49399; Table 1, read-out: MIC): 1 µg/mL (≈ 2.96 µM); MIC (E. faecium NCTC 7171; Table 1, read-out: MIC): 2 µg/mL (≈ 5.93 µM); ED50 (S. aureus ATCC 27660 [9]; Staphylococcus aureus, ATCC27660, read-out: ED50): 2.8 mg/kg; ED50 (S. aureus ATCC 27660 [9]): 2.8 mg/kg
Cc1onc(-c2ccccc2)c1C(=O)N[C@@H]1C(=O)N2[C@@H]1SC(C)(C)[C@@H]2C(=O)O [oxacillin]	–	–	–	–	–	–	–	–	–	–	–	–	–	–	–	–	–	Plasma protein binding [10]: > 91%
CN[C@H](CC(C)C)C(=O)N[C@H]1C(=O)N[C@@H](CC(N)=O)C(=O)N[C@H]2C(=O)N[C@H]3C(=O)N[C@H](C(=O)N[C@H](C(=O)O)c4cc(O)cc(O)c4-c4cc3ccc4O)[C@H](O)c3ccc(c(Cl)c3)Oc3cc2cc(c3O[C@@H]2O[C@H](CO)[C@@H](O)[C@H](O)[C@H]2O[C@H]2C[C@](C)(N)[C@H](O)[C@H](C)O2)Oc2ccc(cc2Cl)[C@H]1O [vancomycin, reference compound]	–	–	–	–	–	–	–	–	–	–	–	–	–	–	–	–	–	MIC (E. faecium 106 (Van R) [2]): 256 µg/mL (≈ 177 µM); MIC [3]: 0.5 µg/mL (≈ 0.345 µM); MIC (S. epidermis ATCC 35547 [6]): 16 µg/mL (≈ 11 µM); MIC (S. oralis ATCC 9811): 0.5 µg/mL (≈ 0.345 µM); MIC (S. pyogenes ATCC 49399): 0.6 µg/mL (≈ 0.414 µM); MIC (E. faecium NCTC 7171): 0.5 µg/mL (≈ 0.345 µM); MIC (S. aureus VRS1 [11]): 512 µg/mL (≈ 353 µM); MIC (S. epidermis ATCC 35547 [12]): 16 µg/mL (≈ 11 µM); MIC [13]: 0.5 µg/mL (≈ 0.345 µM); MIC (E. faecium 106 (Van R) [14]): 256 µg/mL (≈ 177 µM); MIC (E. faecium C68 [15]): 64^k μg/mL
teicoplanin	–	–	–	–	–	–	–	–	–	–	–	–	–	–	–	–	–	Plasma protein binding [10]: > 91%
